Measurements taken from BigSolDB 2.1.

CC(=O)N(CC(O)CO)c1c(I)c(C(=O)NCC(O)CO)c(I)c(C(=O)NCC(O)CO)c1I (stereo not given)
solubility (mole fraction)
Settings | 283.15 K | 288.15 K | 293.15 K | 298.15 K | 303.15 K | 308.15 K | 313.15 K | 318.15 K | 323.15 K
in 1,4-dioxane | – | 5.7e-05 | 6.9e-05 | 8.3e-05 | 0.0001 | 0.000121 | 0.000145 | 0.000174 | 0.000208
in 2-butanone | 0.000148 | 0.000178 | 0.000211 | 0.000255 | 0.000301 | 0.000358 | 0.000425 | 0.00049 | 0.000566
in DMSO | – | – | 0.000293 | 0.000357 | 0.000428 | 0.00051 | 0.000624 | 0.000737 | 0.000869
in acetone | 0.000174 | 0.000209 | 0.000256 | 0.000308 | 0.000371 | 0.000443 | 0.000526 | 0.00062 | 0.000741
in acetonitrile | 8.47e-05 | 0.000101 | 0.000123 | 0.000146 | 0.000175 | 0.00021 | 0.00025 | 0.000298 | 0.000354
in cyclohexane | 9.38e-06 | 1.22e-05 | 1.55e-05 | 2e-05 | 2.51e-05 | 3.14e-05 | 3.89e-05 | 4.81e-05 | 5.96e-05
in ethanol | 0.00113 | 0.0013 | 0.00148 | 0.00169 | 0.00192 | 0.00217 | 0.00244 | 0.00274 | 0.00306
in ethyl acetate | 0.000126 | 0.00015 | 0.00018 | 0.000215 | 0.000256 | 0.000301 | 0.000355 | 0.000414 | 0.000481
in isopropanol | 0.000389 | 0.000456 | 0.000555 | 0.000674 | 0.000806 | 0.000966 | 0.00115 | 0.00137 | 0.00165
in n-butanol | 0.000235 | 0.000287 | 0.000342 | 0.000416 | 0.0005 | 0.000601 | 0.000723 | 0.000866 | 0.00103
in n-propanol | 0.000715 | 0.000804 | 0.000911 | 0.00104 | 0.00119 | 0.00137 | 0.00156 | 0.00181 | 0.0021
in toluene | 2.5e-05 | 3.22e-05 | 4.06e-05 | 5.12e-05 | 6.28e-05 | 7.57e-05 | 9.19e-05 | 0.000112 | 0.000134
